Experimental findings from patent publication US8129547B2, “Anticoagulation of human blood ex vivo” (priority 2006, dated 2012) are described below.

Counter-ions that a name gives are not always drawn.

The target of test [1] is T1, Factor VIIa (Homo sapiens, UniProt P08709).
T1 construct: purchased Haemochrom Diagnostica GmbH (Essen, D)
T1 sequence (P08709 213-466 limits assumed): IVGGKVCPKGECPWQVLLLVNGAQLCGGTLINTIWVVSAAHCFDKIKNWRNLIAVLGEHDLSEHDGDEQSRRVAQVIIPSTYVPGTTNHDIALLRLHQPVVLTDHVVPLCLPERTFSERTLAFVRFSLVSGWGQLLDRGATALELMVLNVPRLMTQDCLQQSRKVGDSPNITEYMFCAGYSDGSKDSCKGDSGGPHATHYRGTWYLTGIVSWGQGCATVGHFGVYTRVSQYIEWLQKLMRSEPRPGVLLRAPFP
T1 sequence (P08709 61-212 partner limits assumed): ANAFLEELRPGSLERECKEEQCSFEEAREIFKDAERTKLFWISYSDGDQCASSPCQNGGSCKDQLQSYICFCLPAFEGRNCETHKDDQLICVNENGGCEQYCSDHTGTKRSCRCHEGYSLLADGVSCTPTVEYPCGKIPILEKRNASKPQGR
The test is described as follows: Determination of Ki values, chromogenic substrate, Dixon evaluation: Factor VIIa. The class given is biochemical. As to conditions: 25° C., tris buffer pH 8.0, substrate CH3SO2-D-phe-Gly-Arg-pNA. An excerpt:
(§1) The inhibitors used here are the commercially available exemplary inhibitors Pefabloc tPA/Xa (2,7-bis(4-amidinobenzylidene)-cyclopeptanone-(1), Pentapharm Ltd. Basel, Switzerland), CJ-FXa (benzylsulphonyl-D-arginyl-glycyl-4-amidinobenzylamide, Haemochrom GmbH, Essen, Germany) and CJ-PK (benzylsulphonyl-D-seryl-carbobenzoxylsyl-4-amidinobenzylamide, Haemochrom GmbH, Essen, Germany). Research samples were available of DX-9065a ((+)-(2S)-2-[4-[[3S)-1-acetimidoyl-3-pyrrodinyl]oxy]phenyl]-3-[7-amidino-2-naphthyl]propanic acid, Daiichi Pharmaceutical Company Ltd., Tokyo, Japan), and Otamixaban (2-(R)-(3-carbamimidoylbenyzyl)-3-(R)-[4-(1-oxypyridin-4-yl)benzoylamino]-butyric acid-methylester, Sanofi-Aventis GmbH, Frankfurt, Germany), both of which are undergoing clinical tests. In order to examine the inhibitory action of these exemplarily used inhibitors on the blood coagulation factors plasma-kallikrein, VIIa, Xa, XIa and XIIa, the Ki values of the respective enzyme-inhibitor complexes were determined.
(§2) The enzymes were produced by Haemochrom Diagnostica GmbH (Essen, D) and were dissolved in 0.154 mol/l NaCl. The substrates (Pentapharm AG, Basel, CH) were dissolved in H2O and the inhibitor was dissolved in the above-mentioned tris buffer. The following substrates were used for the individual enzymes:
(§3) 200 μl of inhibitor solution were mixed with 25 μl of substrate for the determination and the reaction was started by the addition of 50 μl of enzyme. After a reaction time of 3-5 mins. 25 μl of acetic acid (50%) were added and the extinction was measured at 405 nm with a microplate reader (iEMS Reader MF 12401, Labsystems, Helsinki, Finland). The evaluation was carried out graphically according to Dixon (Biochem. J., 55, 170, 1953).
(§4) The enzymes were produced by Haemochrom Diagnostica GmbH (Essen, D), and only thrombin was manufactured in our own laboratory according to Walsmann (Pharmazie 23, 401-402, 1968). All the enzymes were dissolved in 0.154 mol/l NaCl. The substrates (Pentapharm AG, Basel, CH) were dissolved in H2O and the inhibitor was dissolved in the above-mentioned tris buffer. The following substrates were used for the individual enzymes:
(§5) 200 μl of inhibitor solution were mixed with 25 μl of substrate for the determination and the reaction was started by the addition of 50 μl of enzyme. After a reaction time of 3-5 mins. 25 μl of acetic acid (50%) were added and the extinction was measured at 405 nm with a microplate reader (iEMS Reader MF 1401, Labsystems, Helsinki, Finland). The evaluation was carried out graphically according to Dixon (Biochem. J., 55, 170, 1953).

Test [2] has as its target T2, Factor XIa (Homo sapiens, UniProt P03951).
T2 construct: purchased Haemochrom Diagnostica GmbH (Essen, D)
The test can be described thus: Determination of Ki values, chromogenic substrate, Dixon evaluation: Factor XIa. It is filed as biochemical. As to conditions: 25° C., tris buffer pH 8.0, substrate H-D-Lys(Cbo)-Pro-Arg-pNA.
From the text: as §1, §2, §3, §4, §5

Test [3] deals with T3, Factor XIIa (Homo sapiens, UniProt P00748).
T3 construct: purchased Haemochrom Diagnostica GmbH (Essen, D)
T3 sequence (P00748 373-615 limits assumed): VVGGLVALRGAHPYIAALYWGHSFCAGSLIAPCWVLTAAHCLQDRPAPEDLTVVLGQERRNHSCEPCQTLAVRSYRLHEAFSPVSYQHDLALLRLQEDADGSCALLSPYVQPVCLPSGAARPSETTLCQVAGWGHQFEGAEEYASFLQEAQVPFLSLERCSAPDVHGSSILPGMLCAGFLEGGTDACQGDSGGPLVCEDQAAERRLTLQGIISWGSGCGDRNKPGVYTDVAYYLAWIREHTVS
The test can be described thus: Determination of Ki values, chromogenic substrate, Dixon evaluation: Factor XIIa. The class given is biochemical. As to conditions: 25° C., tris buffer pH 8.0, substrate H-D-HHT-Gly-Arg-pNA.
From the text: as §1, §2, §3, §4, §5

In test [4] the target is T4, Factor Xa (Homo sapiens, UniProt P00742).
T4 construct: purchased Haemochrom Diagnostica GmbH (Essen, D)
T4 sequence (P00742 235-488 limits assumed): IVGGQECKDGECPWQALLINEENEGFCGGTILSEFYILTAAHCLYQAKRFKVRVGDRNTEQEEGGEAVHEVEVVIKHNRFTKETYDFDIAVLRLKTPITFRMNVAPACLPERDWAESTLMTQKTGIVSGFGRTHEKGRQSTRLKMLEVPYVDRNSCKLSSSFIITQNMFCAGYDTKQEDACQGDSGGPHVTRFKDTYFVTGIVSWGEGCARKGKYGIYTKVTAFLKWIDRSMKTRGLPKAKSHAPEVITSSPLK
T4 sequence (P00742 41-179 partner limits assumed): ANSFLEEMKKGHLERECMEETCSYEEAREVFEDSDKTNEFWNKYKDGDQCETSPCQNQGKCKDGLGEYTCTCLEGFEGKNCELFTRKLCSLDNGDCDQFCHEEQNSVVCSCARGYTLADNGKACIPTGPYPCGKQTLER
The test can be described thus: Determination of Ki values, chromogenic substrate, Dixon evaluation: Factor Xa. It is filed as biochemical. To be noted: 25° C., tris buffer pH 8.0, substrate CH3OCO-D-Cha-Gly-Arg-pNA.

Test [5] deals with human vein blood. The test can be described thus: Storage of human vein blood after anticoagulation with inhibitor (F1+2 immunoassay). Here is the method:
In the sense of the invention anticoagulation means that the re-formation of thrombin is inhibited in the sampled blood. According to the invention thrombin re-formation is inhibited when no more than 1 nM of thrombin is re-formed in the sampled blood. As described above, the activation of prothrombin to thrombin represents an essential step in the blood coagulation cascade. In this case the prothrombin fragment 1+2 (F1+2) is released in equivalent quantities. It is therefore possible to quantify the thrombin actually formed by determining the fragment produced, thus enabling the prothrombin fragment F1+2 to be used as an indirect marker of an activation of prothrombin to thrombin. The concentration of the prothrombin fragment F1+2 formed may be determined immunologically, for example, with commercial enzyme immunoassays (for example Enzygnost F1+2 micro, Dade Behring GmbH, Marburg).
According to the invention anticoagulation therefore means that no more than 1 nM of prothrombin fragment F1+2 is newly formed in the blood after its sampling. […] Without suitable treatment of the blood to prevent coagulation there is an increase in the concentration of the prothrombin fragment F1+2 in this example to well over 1.3 nM, within a few minutes, due to the plasmatic coagulation, i.e. the blood coagulates.
In this experiment it was determined how long human vein blood can be stored without the formation of thrombin or activation of thrombocytes.
For this purpose blood (9 parts) sampled from a patient was mixed with inhibitor solution (0.05 mM, 0.5 mM or 5 mM in physiological NaCl solution; 1 part). Some of the blood was stored at 25° C., the remainder in the refrigerator at 4° C. The quantity of thrombin formed was determined immunologically during storage based on the formation of the prothrombin fragment F1+2 (Enzygnost F1+2 micro, Dade Behring GmbH, Marburg). […] In this case it is irrelevant whether the blood samples were kept at room temperature (approx. 25° C.) or at 4° C.
For this purpose blood (9 parts) sampled from a patient was mixed with inhibitor solution (0.05 mM, 0.5 mM or 5 mM in physiological NaCl solution; 1 part) and stored at room temperature (about 22±2° C.). The quantity of thrombin formed was determined immunologically during storage based on the formation of the prothrombin fragment F1+2 (Enzygnost F1+2 micro, Dade Behring GmbH, Marburg). It was shown that BAPA′ is capable of keeping anticoagulated blood uncoagulated at a concentration in the blood of 500 μM or 50 μM for more than 48 hours (Table 4). At a concentration of 5 μM BAPA′ prevents coagulation for more than 8 hours.

The target of test [6] is T5, Plasma-kallikrein (Homo sapiens, UniProt P03952).
T5 construct: purchased Haemochrom Diagnostica GmbH (Essen, D)
T5 sequence (P03952 391-638 limits assumed): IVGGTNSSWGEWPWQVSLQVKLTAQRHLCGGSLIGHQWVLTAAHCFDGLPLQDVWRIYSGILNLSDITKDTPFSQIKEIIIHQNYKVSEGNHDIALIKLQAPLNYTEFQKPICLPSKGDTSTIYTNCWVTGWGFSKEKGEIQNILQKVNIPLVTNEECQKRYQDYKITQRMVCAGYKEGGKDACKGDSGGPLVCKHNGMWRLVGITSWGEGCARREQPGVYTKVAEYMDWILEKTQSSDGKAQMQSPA
T5 sequence (P03952 20-390 partner limits assumed): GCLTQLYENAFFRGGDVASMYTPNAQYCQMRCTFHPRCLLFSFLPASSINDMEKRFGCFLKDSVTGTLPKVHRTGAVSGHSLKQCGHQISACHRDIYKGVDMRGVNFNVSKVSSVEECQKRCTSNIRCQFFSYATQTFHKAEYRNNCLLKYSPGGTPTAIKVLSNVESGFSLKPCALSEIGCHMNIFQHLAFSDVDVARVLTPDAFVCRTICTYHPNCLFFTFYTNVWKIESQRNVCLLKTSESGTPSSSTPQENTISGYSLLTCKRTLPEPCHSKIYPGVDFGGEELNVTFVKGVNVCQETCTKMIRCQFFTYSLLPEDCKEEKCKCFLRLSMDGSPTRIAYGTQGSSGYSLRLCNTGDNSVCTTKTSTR
The test is described as follows: Determination of Ki values, chromogenic substrate, Dixon evaluation: plasma-kallikrein. It is filed as biochemical. To be noted: 25° C., tris buffer pH 8.0, substrate Bz-Pro-Phe-Arg-pNA; read-out: Ki PK (plasma-kallikrein).
From the text: In a particularly preferred embodiment the compound according to Formula (I) inhibits not only the blood coagulation factor XA but also thrombin and/or plasma kallikrein. […] Here too the Ki value stands for the dissociation constant of the respective enzyme-inhibitor complex. The determination of the Ki values of the inhibitors vis-a-vis thrombin and plasma kallikrein is preferably carried out in a similar manner to the determination, described above, of the Ki values of the inhibitors vis-a-vis the coagulation factor Xa, but in this case CH3SO2-D-HHT-gly-arg-pNA (with HHT=hexahydrothyrosin, and pNA=para-nitroaniline; sold under the commercial name Pefachrome tPA) are used as substrates in the case of thrombin and bz-pro-phe-arg-pNA (with bz=[…], and pNA=para-nitroaniline; sold under the commercial name Chromozym PK) in the case of plasma-kallikrein.
as §1, §2, §3, §4, §5

Test [7] deals with thrombocytes. The test is described as follows: Thrombocyte propagation on plastic object carriers, Example 4. The class given is cell-based, human. To be noted: PRP, 24 hours after blood sampling. Here is the method:
(§6) For this purpose blood was taken within 1 hour from 12 healthy subjects. 1 aliquot of each of the 12 blood samples was anticoagulated with citrate and 1 other aliquot of the 12 blood samples was anticoagulated with a direct inhibitor of the blood coagulation factor Xa. For this purpose 9 parts of blood were mixed with 1 part of citrate (0.106 mol/l) or 1 part of inhibitor solution in a suitable concentration. Platelet-rich plasma (PRP) was manufactured by centrifuging at 164×g over 10 minutes. The thrombocytes in PRP were activated by induced aggregation according to Born with 5 μmols/l of ADP, 2 μg/ml of collagen and 0.5 mmol/l of arachidonic acid. Impedance full blood aggregometry was carried out with the Multiplate aggregometer and with 6.5 μmols/l of ADP, 3.2 μg/ml of collagen and 0.5 mmol/l of arachidonic acid. The analyses were conducted 1, 2, 3, 4, 5, 10 and 24 hours after blood sampling.
On the contrary, less than 10% of the thrombocytes in RPR anticoagulated with citrate were still propagated 24 hours after blood sampling.

Test [8] relates to thrombocytes. The test is described as follows: Induced aggregation of thrombocytes (Born in PRP, impedance full blood aggregometry) after anticoagulation, Example 4. As to conditions: 24 hours after sampling; ADP, collagen, arachidonic acid. The class given is cell-based, human. Here is the method: as §6
Test [9] deals with thrombin formation. The test is described as follows: Inhibition of thrombin formation (prothrombin fragment F1+2) in hirudin-anticoagulated plasma after activation by kaolin. It is filed as biochemical, human. As to conditions: inhibitor 100 μM, 37° C. As for the experimental part: In this example thrombin formation was activated in plasma anticoagulated with hirudin by the addition of kaolin and the ability of the inhibitors to inhibit thrombin formation was examined.
Blood sampled from a patient was initially anticoagulated by means of the thrombin inhibitor hirudin. For this purpose 9 parts of blood were mixed with 1 part of hirudin solution (recombinant hirudin HBW 023, Hoechst, Frankfurt, 2000 E/ml of physiological NaCl solution), then centrifuged for 10 minutes at 1300 revolutions per minute (rpm). 900 μl of the plasma anticoagulated with hirudin, present in excess, were mixed in polypropylene tubes with 50 μl of inhibitor solution or 0.9% NaCl solution and 50 μl kaolin suspension (from APTT-Test from Roche Diagnostics, diluted 1:250 before use with physiological NaCl solution), and incubated at 37° C. with light shaking. In this case kaolin acts as a non-physiological surface which activates the blood coagulation thereby finally stimulating thrombin formation. At certain times the quantity of the thrombin formed was determined immunologically on the basis of the formation of the prothrombin fragment F1+2 (Enzygnost F1+2 micro, Dade Behring GmbH, Marburg). This determination is based on an enzyme immunoassay according to the sandwich principle. For this purpose aliquot volumes (600 μl) were anticoagulated at certain times with 0.1 M EDTA (40 μl) and kept at −20° C. To determine the concentration of the prothrombin fragment F1+2 50 μl of plasma (if necessary diluted with PBS, phosphate-buffered saline) were incubated with monoclonal antibodies against the human prothrombin fragment F1+2, which were fixed on a microtitre plate included in the test kit. After a washing stage with PBS, which was used to remove sample material not bound by the antibodies, antibodies conjugated with peroxidase were incubated against human prothrombin binding to the free F1+2 determinants. […] This was then determined photometrically at a wavelength of 492 nm. […]

The mark [10] stands for this setting: 25° C., concentration in the blood 50 μM.
[11] abbreviates: 25° C., concentration in the blood 500 μM.

T2 sequence (P03951 388-625 limits assumed): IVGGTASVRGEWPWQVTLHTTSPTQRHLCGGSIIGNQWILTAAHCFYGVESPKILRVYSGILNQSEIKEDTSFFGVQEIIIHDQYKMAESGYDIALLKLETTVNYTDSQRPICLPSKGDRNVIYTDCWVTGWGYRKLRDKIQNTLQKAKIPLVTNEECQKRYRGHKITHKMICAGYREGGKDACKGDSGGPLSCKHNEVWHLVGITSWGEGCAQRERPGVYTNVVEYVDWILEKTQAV
T2 sequence (P03951 19-387 partner limits assumed): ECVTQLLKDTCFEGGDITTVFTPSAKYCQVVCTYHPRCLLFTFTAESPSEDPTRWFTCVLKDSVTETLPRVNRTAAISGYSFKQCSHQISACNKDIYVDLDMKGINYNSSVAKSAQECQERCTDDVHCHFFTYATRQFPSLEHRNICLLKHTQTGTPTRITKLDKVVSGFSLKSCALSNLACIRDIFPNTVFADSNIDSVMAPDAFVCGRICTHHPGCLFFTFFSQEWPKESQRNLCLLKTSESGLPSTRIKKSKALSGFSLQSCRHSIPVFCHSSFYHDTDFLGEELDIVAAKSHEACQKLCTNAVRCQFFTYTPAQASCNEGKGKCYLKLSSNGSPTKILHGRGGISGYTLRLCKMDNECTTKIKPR

The Ki is the equilibrium dissociation constant of an inhibitor or competing ligand from its target. As for `N=C(N)NCCC[C@@H](NS(=O)(=O)Cc1ccccc1)C(=O)N1CCC[C@H]1C(=O)NCc1ccc(C(=N)N)cc1` [BAPA′, benzylsulphonyl-D-arginyl-prolyl-4-amidinobenzylamide], the Ki was 830 nM in test [1], 27 nM in test [2] and 130 nM in [3].

In the case of `N=C(N)NCCC[C@@H](NS(=O)(=O)Cc1ccccc1)C(=O)NCC(=O)NCc1ccc(C(=N)N)cc1` [CJ-FXa, benzylsulphonyl-D-arginyl-glycyl-4-amidinobenzylamide], the Ki came to 3.5 nM in test [4]; 9600 nM in test [1]; 800 nM in [2]; 84 nM in [6]; 350 nM in test [3]. The Anticoagulation time was above 48 h in test [5] (4° C., concentration in the blood 500 μM); “approx. 24 h” in test [5] (setting [10]); 12 to 24 h in test [5] (25° C., concentration in the blood 50 μM, listed as CJ-Fxa); above 48 h in [5] (setting [11]).

Take `CC(=N)N1CC[C@H](Oc2ccc([C@H](Cc3ccc4ccc(C(=N)N)cc4c3)C(=O)O)cc2)C1` [DX-9065a]: the Anticoagulation time is 5 to 7 h in test [5] (setting [10]) and 7 to 12 h in test [5] (setting [11]). Moreover, the inhibitory constant (Ki) was found to be 92000 nM in test [1], 2300 nM in test [2], 530 nM in test [6] and 340 nM in [3].

For the compound `O=C(O)CC(O)(CC(=O)O)C(=O)O` [citrate, trisodium citrate], in test [7], the “thrombocytes showing normal propagation on plastic object carriers” value is “less than 10%”. The “induced aggregation relative to the initial value” in test [8] is given as 20 to 30 % of the initial value.

With “benzylsulphonyl-D-seryl-carbobenzoxylsyl-4-amidinobenzylamide [CJ-PK]”, the Ki in test [4] is 2900 nM; in test [1], 3800 nM; in test [2] it was 250 nM; in [6], 3.5 nM; in [3] it was 12000 nM. The “suppression of thrombin formation after kaolin activation” value in test [9] was “suppress thrombin formation effectively”.
